Reference: patent US20200231638A1, “STABILIZED ANTI-MICROBIAL PEPTIDES” (priority 2015, published 2020)
≈ marks a conversion by molar mass, not a printed value. Bridge positions count the residues as written; N and C are the ends. Square brackets hold non-standard residues; d marks the D form. Ends that are not written are not given here. Peptide text beside a SMILES is read from it. R8 = C=CCCCCCC[C@@](C)(N)C(=O)O; S5 = C=CCCC[C@](C)(N)C(=O)O; Nle = CCCC[C@H](N)C(=O)O

Legend:
E. coli = assay type: cell-based, Escherichia coli
Outline: (§1)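 Read-out is visible growth: the MIC is the lowest peptide concentration showing none after 20-24 hours at 37° C. Bacteria in refined (anion-exchanged) Mueller-Hinton broth were seeded at a final 5×10^5 CFU/ml onto water-based peptide serial dilutions.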

S. marcescens = assay type: cell-based
Procedure: Antimicrobial Activity Assay:
The following microbroth dilution protocol was adapted to determine the minimum inhibitory concentration (MIC) of each peptide. First, Mueller-Hinton broth (MHB) was passed through an anion exchange column to remove polyanionic species and generate refined MHB. […] Briefly, bacterial cells was grown overnight in refined MHB at 37° C. and then diluted and allowed to grow again for several hours. Serial dilutions of peptide stocks in water (10 μl) were prepared using clear round-bottom polypropylene 96-well plates. Then 90 μl of bacteria in refined MHB was added to give a final inoculum of 5×10^5 CFU/ml. The plates were then covered with porous tape to reduce evaporation, and incubated for 20-24 hours at 37° C. The MIC is the minimum peptide concentration at which no visible growth was observed.

B. cereus = assay type: cell-based, Bacillus cereus
Outline: as §1

[1] = Circular dichroism spectroscopy (α-helicity); assay type: physicochemical; conditions: for α-helicity by CD in water, absence of TFE: aqueous solution, no TFE; for α-helicity by CD in the presence of TFE: TFE 50% v/v
Procedure: To determine the helicity of the panel of stapled magainin II analogues, the peptides were dissolved in water using CD spectroscopy in the presence and absence of trifluoroethanol (TFE; 50% v/v), a helix-promoting solvent. […] Levels of helicity ranged from approximately 34% for MagStap 2 to 100% for MagStap 1 and 3, as compared to an idealized α-helical peptide. […] When the helicity in the presence of TFE was measured, most of the stapled analogues were 50-60% helical except for MagStap 3, which retained 100% α-helical content.
Circular Dichroism Spectroscopy:
Compounds were dissolved in an aqueous solution (e.g. 5 mM potassium phosphate solution at pH 7, or distilled H2O, to concentrations of 25-50 μM). Circular dichroism (CD) spectra were obtained on a spectropolarimeter (Aviv) using standard measurement parameters (e.g., temperature, 37° C.; wavelength, 190-260 nm; step resolution, 0.5 nm; speed, 20 nm/sec; accumulations, 10; response, 1 sec; bandwidth, 1 nm; path length, 0.1 cm). The α-helical content of each peptide was calculated by dividing the mean residue ellipticity by the reported value for a model helical decapeptide (see, e.g., Yang et al., Meth Enzymol. 130:208 (1986)).

S. aureus = assay type: cell-based, Staphylococcus aureus
Outline: as §1

P. aeruginosa = assay type: cell-based, Pseudomonas aeruginosa
Outline: as §1

human red blood cells = assay type: cell-based
Outline: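 Washed human RBCs as 1% (v/v) suspension in phosphate-buffered saline incubated 1 h at 37° C with serially diluted peptides. Hemoglobin release in supernatant measured spectrophotometrically (570 nm), % hemolysis relative to untreated and 1% Triton-X100 controls; MHC defined as concentration giving less than 1% release.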

Compound | MIC E. coli (E. coli) [µg/mL] | MIC S. marcescens (S. marcescens) [µg/mL] | MIC B. cereus (B. cereus) [µg/mL] | α-helicity by CD in water, absence of TFE [1] | α-helicity by CD in the presence of TFE [1] | MIC S. aureus (S. aureus) [µg/mL] | MIC P. aeruginosa (P. aeruginosa) [µg/mL] | hemolytic activity (in words) (human red blood cells)
CCCC[C@H](NC(=O)[C@@H](NC(=O)[C@H](CCC(=O)O)NC(=O)[C@H](C)NC(=O)[C@@H](NC(=O)[C@H](Cc1ccccc1)NC(=O)[C@H](C)NC(=O)[C@]1(C)CCCC=CCCCCCC[C@@](C)(NC(=O)[C@H](CC(C)C)NC(=O)[C@H](Cc2ccccc2)NC(=O)[C@H](CCCCN)NC(=O)CNC(=O)[C@@H](NC(=O)CN)[C@@H](C)CC)C(=O)N[C@@H](C)C(=O)N[C@@H](C)C(=O)N[C@@H](CCCCN)C(=O)N[C@@H](CCCCN)C(=O)N[C@@H](Cc2ccccc2)C(=O)N[C@@H](C)C(=O)N1)C(C)C)[C@@H](C)CC)C(=O)N[C@@H](CC(N)=O)C(=O)N[C@@H](CO)C(N)=O [MagStap 1] (H-GIGKFL[R8]AAKKFA[S5]AFVAEI[Nle]NS-NH2; staple 7-14; N-terminus assumed) | 12.5 (≈ 5.03 µM) | >50 | 12.5 (≈ 5.03 µM) | 100% |  |  |  | 
CCCC[C@H](NC(=O)[C@@H](NC(=O)[C@H](CCC(=O)O)NC(=O)[C@H](C)NC(=O)[C@@H](NC(=O)[C@H](Cc1ccccc1)NC(=O)[C@]1(C)CCCC=CCCCCCC[C@@](C)(NC(=O)[C@H](Cc2c[nH]cn2)NC(=O)[C@H](CC(C)C)NC(=O)[C@H](Cc2ccccc2)NC(=O)[C@H](CCCCN)NC(=O)CNC(=O)[C@@H](NC(=O)CN)[C@@H](C)CC)C(=O)N[C@@H](C)C(=O)N[C@@H](CCCCN)C(=O)N[C@@H](CCCCN)C(=O)N[C@@H](Cc2ccccc2)C(=O)N[C@@H](C)C(=O)N[C@@H](CCCCN)C(=O)N1)C(C)C)[C@@H](C)CC)C(=O)N[C@@H](CC(N)=O)C(=O)N[C@@H](CO)C(N)=O [MagStap 2] (H-GIGKFLH[R8]AKKFAK[S5]FVAEI[Nle]NS-NH2; staple 8-15; N-terminus assumed) | 3.1 (≈ 1.19 µM) | >50 | 3.1 (≈ 1.19 µM) | approximately 34% |  |  |  | 
CCCC[C@H](NC(=O)[C@@H](NC(=O)[C@H](CCC(=O)O)NC(=O)[C@H](C)NC(=O)[C@@H](NC(=O)[C@]1(C)CCCC=CCCCCCC[C@@](C)(NC(=O)[C@H](C)NC(=O)[C@H](Cc2c[nH]cn2)NC(=O)[C@H](CC(C)C)NC(=O)[C@H](Cc2ccccc2)NC(=O)[C@H](CCCCN)NC(=O)CNC(=O)[C@@H](NC(=O)CN)[C@@H](C)CC)C(=O)N[C@@H](CCCCN)C(=O)N[C@@H](CCCCN)C(=O)N[C@@H](Cc2ccccc2)C(=O)N[C@@H](C)C(=O)N[C@@H](CCCCN)C(=O)N[C@@H](C)C(=O)N1)C(C)C)[C@@H](C)CC)C(=O)N[C@@H](CC(N)=O)C(=O)N[C@@H](CO)C(N)=O [MagStap 3] (H-GIGKFLHA[R8]KKFAKA[S5]VAEI[Nle]NS-NH2; staple 9-16; N-terminus assumed) | 3.1 (≈ 1.22 µM) | >50 | 6.2 (≈ 2.45 µM) | 100% | 100% |  |  | 
CC[C@H](C)[C@H](NC(=O)CN)C(=O)NCC(=O)N[C@@H](CCCCN)C(=O)N[C@@H](Cc1ccccc1)C(=O)N[C@@H](CC(C)C)C(=O)N[C@@H](CCCCN)C(=O)N[C@@H](CCCCN)C(=O)N[C@@H](C)C(=O)N[C@@H](CCCCN)C(=O)N[C@]1(C)CCCCCCC(O)C(O)CCC[C@@](C)(C(=O)N[C@H](C(=O)N[C@@H](CC(C)C)C(=O)N[C@@H](CCCCN)C(=O)N[C@@H](CCCCN)C(N)=O)[C@@H](C)CC)NC(=O)[C@H](C(C)C)NC(=O)[C@H](Cc2ccccc2)NC(=O)[C@H](C)NC(=O)[C@H](CCCCN)NC(=O)CNC(=O)[C@H](Cc2ccccc2)NC1=O (stereo partly drawn) [PexDiol 5] | 1.6 (≈ 0.628 µM) | >50 | 3.1 (≈ 1.22 µM) |  |  | 3.1 (≈ 1.22 µM) | 1.6 (≈ 0.628 µM) | significant hemolytic activity
CC[C@H](C)[C@H](NC(=O)CN)C(=O)NCC(=O)N[C@@H](CCCCN)C(=O)N[C@@H](Cc1ccccc1)C(=O)N[C@@H](CC(C)C)C(=O)N[C@@H](CCCCN)C(=O)N[C@]1(C)CCCCCCC=CCCC[C@@](C)(C(=O)N[C@@H](Cc2ccccc2)C(=O)N[C@H](C(=O)N[C@@H](CCCCN)C(=O)N[C@H](C(=O)N[C@@H](CC(C)C)C(=O)N[C@@H](CCCCN)C(=O)N[C@@H](CCCCN)C(N)=O)[C@@H](C)CC)C(C)C)NC(=O)[C@H](CCCCN)NC(=O)CNC(=O)[C@H](Cc2ccccc2)NC(=O)[C@H](CCCCN)NC(=O)[C@H](CCCCN)NC(=O)[C@H](C)NC1=O [PexStap 2] (H-GIGKFLK[R8]AKKFGK[S5]FVKILKK-NH2; staple 8-15; N-terminus assumed) | 3.1 (≈ 1.21 µM) | >50 | 3.1 (≈ 1.21 µM) |  |  | 3.1 (≈ 1.21 µM) | 3.1 (≈ 1.21 µM) | 
CC[C@H](C)[C@H](NC(=O)CN)C(=O)NCC(=O)N[C@@H](CCCCN)C(=O)N[C@@H](Cc1ccccc1)C(=O)N[C@@H](CC(C)C)C(=O)N[C@@H](CCCCN)C(=O)N[C@@H](CCCCN)C(=O)N[C@@H](C)C(=O)N[C@@H](CCCCN)C(=O)N[C@]1(C)CCCCCCC=CCCC[C@@](C)(C(=O)N[C@H](C(=O)N[C@@H](CC(C)C)C(=O)N[C@@H](CCCCN)C(=O)N[C@@H](CCCCN)C(N)=O)[C@@H](C)CC)NC(=O)[C@H](C(C)C)NC(=O)[C@H](Cc2ccccc2)NC(=O)[C@H](C)NC(=O)[C@H](CCCCN)NC(=O)CNC(=O)[C@H](Cc2ccccc2)NC1=O [PexStap 5] (H-GIGKFLKKAK[R8]FGKAFV[S5]ILKK-NH2; staple 11-18; N-terminus assumed) | 1.6 (≈ 0.637 µM) | >50 | 1.6 (≈ 0.637 µM) |  | around 83% | 3.1 (≈ 1.23 µM) | 1.6 (≈ 0.637 µM) | higher levels of hemolytic activity when compared to PexStap2 and PexStap6
CC[C@H](C)[C@H](NC(=O)CN)C(=O)NCC(=O)N[C@@H](CCCCN)C(=O)N[C@@H](Cc1ccccc1)C(=O)N[C@@H](CC(C)C)C(=O)N[C@@H](CCCCN)C(=O)N[C@@H](CCCCN)C(=O)N[C@@H](C)C(=O)N[C@@H](CCCCN)C(=O)N[C@@H](CCCCN)C(=O)N[C@]1(C)CCCCCCC=CCCC[C@@](C)(C(=O)N[C@@H](CC(C)C)C(=O)N[C@@H](CCCCN)C(=O)N[C@@H](CCCCN)C(N)=O)NC(=O)[C@H](CCCCN)NC(=O)[C@H](C(C)C)NC(=O)[C@H](Cc2ccccc2)NC(=O)[C@H](C)NC(=O)[C@H](CCCCN)NC(=O)CNC1=O [PexStap 6] (H-GIGKFLKKAKK[R8]GKAFVK[S5]LKK-NH2; staple 12-19; N-terminus assumed) | 3.1 (≈ 1.24 µM) | >50 | 6.3 (≈ 2.51 µM) |  |  | 3.1 (≈ 1.24 µM) | 1.6 (≈ 0.638 µM) | 
GIGKFLKKAKKFGKAFVKILKK-NH2 [Pexiganan, reference compound] | 3.3 | >50 | 3.1 |  |  | 6.3 | 1.6 | no hemolysis
